Patent US20200339691A1, “PROTEINACEOUS MOLECULES AND USES THEREFOR” (priority 2018, published 2020)
Where a SMILES comes first, the peptide text is derived from it. The star is where a group is joined. Myristoyl = CCCCCCCCCCCCCC(=O)*

How the values were obtained:
[1] = test system: CD44^hiCD24^lo CSCs in MDA-MB-231 cells; assay: FACS analysis of CD44^hiCD24^lo cancer stem cells in MDA-MB-231 cells treated with P1 analogues; type: cell-based, human; settings: 50 μM peptide, 48 hours; for CD44^hiCD24^lo CSCs (%) / COI, Live Single CD44^hiCD24^lo CSCs (Cell Count): n = 1; for Average Inhibition of CSCs (%) / CD44^hiCD24^lo CSCs (%) Repeat 1 / CD44^hiCD24^lo CSCs (%) Repeat 2 / CD44^hiCD24^lo CSCs (%) Repeat 3: n = 3
Protocol: Analogues of P1 (Table 6) were designed and synthesized in accordance with the procedure of Example 5. The ability of these analogues to inhibit cancer stem cells was determined using FACS analysis on MDA-MB-231 cells, which constitutively contain approximately 90% CD44^hiCD24^lo cancer stem cells, treated with the peptides.
(§1) Non-adherent cells were removed during the washing steps.

MDA-MB-231 cells = type: cell-based, human; settings: 50 μM peptide, 48 hours, n = 1
Text: as §1
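Throughout, for COI, Live Single Cells (Cell Count): live means Hoechst-negative events among single cells.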

SMILES | Inhibition of CSCs (%) Repeat 1 [1] [%] | Inhibition of CSCs (%) Repeat 2 [1] [%] | Inhibition of CSCs (%) Repeat 3 [1] [%] | CD44^hiCD24^lo CSCs (%) [1] [%] | COI, Live Single CD44^hiCD24^lo CSCs (Cell Count) [1] | Average Inhibition of CSCs (%) [1] [%] | CD44^hiCD24^lo CSCs (%) Repeat 1 [1] [%] | CD44^hiCD24^lo CSCs (%) Repeat 2 [1] [%] | CD44^hiCD24^lo CSCs (%) Repeat 3 [1] [%] | COI (Cell Count) (MDA-MB-231 cells) | COI, Live Single Cells (Cell Count) (MDA-MB-231 cells) | COI, Single (Cell Count) (MDA-MB-231 cells) | Total Cell Count (MDA-MB-231 cells)
CCCCCCCCCCCCCC(=O)N[C@H](C(=O)N[C@@H](C)C(=O)N[C@H](C(=O)N[C@@H](Cc1ccccc1)C(=O)N[C@@H](CCCNC(=N)N)C(=O)N[C@@H](CC(C)C)C(=O)N[C@@H](CCCNC(=N)N)C(=O)N[C@@H](CCCCN)C(=O)NCC(=O)N[C@@H](CCCNC(=N)N)C(=O)N[C@@H](CCSC)C(=O)N[C@@H](CCSC)C(=O)N[C@@H](CC(=O)O)C(=O)N[C@H](C(=O)N[C@@H](CCCCN)C(=O)N[C@@H](CCCCN)C(N)=O)C(C)C)[C@@H](C)CC)[C@@H](C)O [Peptide 2815303, Myristoyl-TAIFRLRKGRMMDVKK-NH2] (Myristoyl-TAIFRLRKGRMMDVKK-NH2) | 76.31 | 81.14 | 80.95 | 25.00 | 2 | 79.47 | 21.23 | 16.92 | 17.09 | 18 | 8 | 17 | 10195
CCCCCCCCCCCCCC(=O)N[C@H](C(=O)N[C@@H](Cc1ccccc1)C(=O)N[C@H](C(=O)N[C@@H](Cc1ccccc1)C(=O)N[C@@H](CCCNC(=N)N)C(=O)N[C@@H](C)C(=O)N[C@@H](CCCNC(=N)N)C(=O)N[C@@H](CCCCN)C(=O)NCC(=O)N[C@@H](CCCNC(=N)N)C(=O)N[C@@H](CCSC)C(=O)N[C@@H](CCSC)C(=O)N[C@@H](CC(=O)O)C(=O)N[C@H](C(=O)N[C@@H](CCCCN)C(=O)N[C@@H](CCCCN)C(N)=O)C(C)C)[C@@H](C)CC)[C@@H](C)O [Peptide 2815307, Myristoyl-TFIFRARKGRMMDVKK-NH2] (Myristoyl-TFIFRARKGRMMDVKK-NH2) | 24.79 | 25.54 | 36.94 | 62.77 | 86 | 29.09 | 67.40 | 66.80 | 56.59 | 182 | 137 | 164 | 10681
CCCCCCCCCCCCCC(=O)N[C@@H](CC(C)C)C(=O)N[C@H](C(=O)N[C@@H](Cc1ccccc1)C(=O)N[C@H](C(=O)N[C@@H](Cc1ccccc1)C(=O)N[C@@H](CCCNC(=N)N)C(=O)N[C@@H](CC(C)C)C(=O)N[C@@H](CCCNC(=N)N)C(=O)N[C@@H](CCCCN)C(=O)NCC(=O)N[C@H](C(=O)N[C@@H](CCSC)C(=O)N[C@@H](CCSC)C(=O)N[C@@H](CC(=O)O)C(=O)N[C@H](C(=O)N[C@@H](CCCCN)C(=O)N[C@@H](CCCCN)C(N)=O)C(C)C)C(C)C)[C@@H](C)CC)[C@@H](C)O [Peptide 2853831, Myristoyl-LTFIFRLRKGVMMDVKK-NH2] (Myristoyl-LTFIFRLRKGVMMDVKK-NH2) | 79.77 | 84.29 | 89.06 | 11.83 | 11 | 84.37 | 18.13 | 14.09 | 9.82 | 377 | 93 | 280 | 10000
